According to publication PMC9405123, “Design, Synthesis and Mechanistic Studies of Novel Isatin-Pyrazole Hydrazone Conjugates as Selective and Potent Bacterial MetAP Inhibitors” (Antibiotics, 2022):
In brackets after ≈: the same amount, converted by molar mass.

Key:
K. pneumoniae [1] = test: Growth inhibition screening (broth dilution); format: cell-based, Klebsiella pneumonia
How it was run: (§1)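 NCCLS broth dilution in nutrient broth with compounds from DMSO at a final 250 µg/mL. About 2.5 × 10^5 cells/mL were inoculated and incubated overnight at 37 °C. Growth was measured as turbidity at 590 nm.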

HsMetAP1b = biological target: T1, HsMetAP1b (Homo sapiens, UniProt P53582); test: MetAP enzyme inhibition, Morrison Ki (Met-AMC fluorescence); format: biochemical, H. sapiens; settings: Morrison Ki method
T1 construct: made in house

E. coli = test: Minimum bactericidal concentration; format: cell-based, Escherichia coli
E. faecalis [2] = test: Growth kinetics; format: cell-based, Enterococcus faecalis
Method: (§2) Bacterial strains were tested as mentioned in Habib et al.. Briefly, ½ MIC, MIC and 2MIC values of PS9 were taken to assess the growth of bacterial strains whereas untreated cells and media were taken as positive and negative control, respectively.

P. aeruginosa [3] = test: Growth inhibition screening (broth dilution); format: cell-based, Pseudomonas aeruginosa
How it was run: as §1

E. faecalis [4] = test: Minimum bactericidal concentration; format: cell-based, Enterococcus faecalis
B. subtilis [5] = test: Minimum inhibitory concentration (broth dilution); format: cell-based; settings: Bacillus subtilis, alone
LG20 = test: MIC on environmental MDR isolate (microdilution)
K. pneumoniae [6] = test: Combination study with AMP or CIP
MtMetAP1c = biological target: T2, MtMetAP1c (Mycobacterium tuberculosis, UniProt P9WK19); test: MetAP enzyme inhibition, Morrison Ki (Met-AMC fluorescence); format: biochemical, M. tuberculosis; settings: Morrison Ki method
T2 construct: made in house
T2 sequence (P9WK19 whole entry): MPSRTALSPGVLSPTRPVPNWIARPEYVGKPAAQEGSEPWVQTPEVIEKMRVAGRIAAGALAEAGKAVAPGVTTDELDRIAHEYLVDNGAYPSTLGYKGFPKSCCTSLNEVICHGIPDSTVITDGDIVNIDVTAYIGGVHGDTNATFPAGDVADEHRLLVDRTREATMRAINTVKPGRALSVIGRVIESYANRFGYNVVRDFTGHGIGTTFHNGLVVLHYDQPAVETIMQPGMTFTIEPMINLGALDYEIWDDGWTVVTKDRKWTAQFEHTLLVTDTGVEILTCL
Method: MetAP appears to serve a vital role in the co- or post-translational modification of proteins, making it essential for bacterial cell metabolism and survival. In this study, all enzymes, which were used for this study, including MtMetAP1c (M. tuberculosis), EfMetAP1a (E. faecalis), SpMetAP1a (S. pneumoniae) and HsMetAP1b (H. sapiens) enzymes, were expressed and purified in our lab as previously reported. All compounds prepared 10 mM stocks in DMSO and were used for enzyme inhibition studies. The concentration of each enzyme is adjusted such that they have similar reaction rates (HsMetAp1b, 1 µM; SpMetAP1a, 5 µM; EfMetAP1a, 1 µM; MtMetAP1c, 1 µM;) as reported earlier. All assays were performed in […] reaction containing 50 mM HEPES (pH 7.5 for SpMetAP1a and HsMetAP1b; 8.0 for EfMetAP1a, MtMetAP1c, […]), 150 mM NaCl, and CoCl2 (three molar equivalents of corresponding enzymes). The reaction was started by adding 50 μM L-Methionine 7-amido-4-methyl coumarin (Met-AMC) and continuously monitoring the fluorescence of released 7-amino-4-methyl coumarin (AMC) (380 nm excitation and 460 nm emission) in a microplate multimode reader (TECAN, Austria). The maximum percentage of inhibition against enzymes is calculated at […] compound concentration. […] The Ki values were determined according to the Morrison method using three different concentrations of substrates and ten different concentrations of the inhibitor. All experiments were performed in triplicate. GraphPad Prism version 8.0.0 (San Diego, CA, USA) was used to determine all the kinetic parameters.

P. aeruginosa [7] = test: Growth kinetics; format: cell-based, Pseudomonas aeruginosa
Method: as §2

JST78 = test: MIC on environmental MDR isolate (microdilution); settings: Escherichia coli
B. subtilis [8] = test: Combination study with AMP or CIP
G. mellonella larvae = test: In vivo toxicological assessment, larval survival; design: species or system Galleria mellonella; settings: 100, 250, 500, 750 and 1000 μg/mL; up to 5 days
Method: The objective of this experiment was to assess the in vivo toxicity of PS9 using larvae of G. mellonella. […] The results obtained using Galleria larvae show a strong correlation to those generated using mammals and larvae have the advantage of producing results within 48 h, being inexpensive to purchase and house, and being free from the legal and ethical restrictions that affect mammalian testing. Larvae can also be used to assess toxicity and there is a strong correlation between the toxicity of compounds in larvae and mammals.
PS9 stock solutions were prepared in DMSO (≤10%) and deionized water and maintained at room temperature.
The greater wax G. mellonella sixth instar larvae were purchased from Live foods Direct Ltd. Sheffield, UK, and kept in the dark at 15 °C to suspend pupation. Healthy larvae with no appearance of melanization and weighing 150–250 mg were selected and stored in sterile nine cm Petri dishes containing wood shavings.

EfMetAP1a = EfMetAP1a (Enterococcus faecalis, UniProt Q832M5); test: MetAP enzyme inhibition, Morrison Ki (Met-AMC fluorescence); format: biochemical; settings: Morrison Ki method
Chain of EfMetAP1a (Q832M5 entry or part of it): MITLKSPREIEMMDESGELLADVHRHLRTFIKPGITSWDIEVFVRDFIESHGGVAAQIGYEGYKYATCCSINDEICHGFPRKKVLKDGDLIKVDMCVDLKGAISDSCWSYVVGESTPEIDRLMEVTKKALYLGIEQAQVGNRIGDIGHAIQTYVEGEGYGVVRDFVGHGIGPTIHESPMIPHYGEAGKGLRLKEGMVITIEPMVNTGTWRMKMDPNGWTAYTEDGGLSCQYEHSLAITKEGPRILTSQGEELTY

P. aeruginosa [9] = test: Minimum bactericidal concentration; format: cell-based, Pseudomonas aeruginosa; settings: Pseudomonas aeruginosa
LG33 = test: MIC on environmental MDR isolate (microdilution); settings: Enterobacter
JST61 = test: MIC on environmental MDR isolate (microdilution); settings: Pantoea agglomerans
LG1 = test: MIC on environmental MDR isolate (microdilution)
LG51 = test: MIC on environmental MDR isolate (microdilution); settings: Escherichia coli

**Q.** Which results are given for `O=C1Nc2ccc(F)cc2/C1=N\NC(=O)c1cc(-c2cccc(Br)c2)n[nH]1` [PS9, (E)-3-(3-Bromophenyl)-N′-(5-Fluoro-2-Oxoindolin-3-Ylidene)-1H-Pyrazole-5-Carbohydrazide]?
**A.** inhibition at 250 µg/mL (K. pneumoniae [1]; Klebsiella pneumoniae): ≥ 94%; % Growth Inhibition at 250 µg/mL (K. pneumoniae [1]; listed as C00009): 94%; Ki (HsMetAP1b): 632 ± 16.3 µM; MBC/MIC Ratio (R*) (E. coli): 4; MBC (E. coli; Escherichia coli): 64 µg/mL (≈ 149 µM); growth (E. faecalis [2]; 2MIC): no growth was observed in both cultures at 2MIC concentration till 24 h; growth (E. faecalis [2]; MIC): no significant growth was found at MIC up to 10 h; inhibition at 250 µg/mL (P. aeruginosa [3]; Pseudomonas aeruginosa): ≥ 94%; % Growth Inhibition at 250 µg/mL (P. aeruginosa [3]; listed as C00009): 100%; MBC/MIC Ratio (R*) (E. faecalis [4]): 4; MBC (E. faecalis [4]; Enterococcus faecalis): 32 µg/mL (≈ 74.7 µM); MIC (B. subtilis [5]): 32 µg/mL (≈ 74.7 µM); MIC (LG20; Enterobacter, isolate LG20 Enterobacter sp.): < 1 µg/mL; MIC lower than AMP and CTX (LG20; isolate LG20): 32 times; MIC in Combination (K. pneumoniae [6]; combination PS9 + AMP): 2 µg/mL; MIC in Combination (K. pneumoniae [6]; combination PS9 + CIP): 4 µg/mL; FICI (K. pneumoniae [6]; combination with AMP): 0.50; FICI (K. pneumoniae [6]; combination with CIP): 0.50; Ki (MtMetAP1c): 0.31 µM; growth (P. aeruginosa [7]; 2MIC and MIC): no growth observed up to 24 h; time after inoculation at which log phase was observed (P. aeruginosa [7]; ½ MIC): 8 h; MIC (JST78): 1000 µg/mL (≈ 2340 µM); MIC in Combination (B. subtilis [8]; combination PS9 + AMP): 4 µg/mL; MIC in Combination (B. subtilis [8]; combination PS9 + CIP): 8 µg/mL; FICI (B. subtilis [8]; combination with AMP): 0.62; Mode of Interaction (B. subtilis [8]; combination with AMP): Indifferent (in between 0.5 and 4); FICI (B. subtilis [8]; combination with CIP): 4.25; larval survival (G. mellonella larvae): 100%; Ki (EfMetAP1a): 6.93 ± 0.45 µM; MBC (P. aeruginosa [9]): 16 µg/mL (≈ 37.4 µM); MIC (LG33): 1000 µg/mL (≈ 2340 µM); MIC (JST61): 1000 µg/mL (≈ 2340 µM); MIC (LG1): 32 µg/mL (≈ 74.7 µM); MIC (LG51): 1000 µg/mL (≈ 2340 µM)
